We go through one substance from patent US4912036A, “Rapid differentiation of bacteria using cyclic polypeptide antibiotics” (Eastman Kodak Company, priority 1986, dated 1990).

The subject of one assay is E. coli. Briefly: DCIP reduction solution assay, ΔOD 620 nm. Type of assay: cell-based, Escherichia coli. To be noted: E. coli (-) 5×10^7, gramicidin S 0.00625 mg/ml, 37° C. As to the method:
(§1) These examples illustrate the differentiation of bacteria using a tetrazolium salt and phenolic dye as the reducible compounds and two cyclic polypeptide antibiotics according to the present invention. The tetrazolium salt was 3-(4,5-dimethyl-2-thiazolyl) -2,5-diphenyl-2H-tetrazolium bromide (MTT) which forms a colored formazan dye when reduced. The phenolic dye was 2,6-dichloroindophenol (DCIP) which forms a colorless species when reduced.
(§2) Solutions of the reducible compounds were prepared with the following: HEPES buffer (3 ml, 0.05 molar, pH 7.5), TRITON X-100 nonionic surfactant (1% concentration), glucose (50 μl of 10% in water), tryptose (50 μl of a 10% solution in water), MTT (25 μl of 5 mg/ml methanol) or DCIP (25 μl of 3 mg/ml methanol) and phenazine methosultate ETA (25 μl of 3 mg/ml methanol).
(§3) Test solutions were prepared from the following: reducible compound solution from above (200 μl), 50 μl of either gramicidin S solution (6 mg/ml methanol and 9 ml of buffer) or tyrocidin solution (100 mg/ml methanol and 8 ml of buffer) and 50 μl of cell suspension. […] The change in optical density (ΔOD) was determined after 30 minutes at 37° C. at 540 nm for the MTT assay and at 620 nm for the DCIP assay using a commercially available spectrophotometer.

A further assay has as its system K. pneumoniae. The experiment in a line: DCIP reduction solution assay, ΔOD 620 nm. Type of assay: cell-based, Klebsiella pneumoniae. To be noted: K. pneumoniae (-) 5×10^7, gramicidin S 0.00625 mg/ml, 37° C. On the procedure:
as §1, §2, §3

Assay [1] concerns P. vulgaris. The experiment in a line: DCIP reduction solution assay, ΔOD 620 nm. Format: cell-based, Proteus vulgaris. To be noted: P. vulgaris (-) 5×10^7, gramicidin S 0.00625 mg/ml, 37° C. On the procedure:
as §1, §2, §3

The next assay concerns P. aeruginosa. Briefly: RIND VII reduction solution assay, ΔOD 635 nm. Conditions: antibiotic 10^-4 molar. Format: cell-based, Pseudomonas aeruginosa. On the procedure:
(§4) Bacterial suspensions were prepared by growing the cells in BHT broth to stationary phase overnight at 37° C. P. auruginosa was grown with agitation. About 40 ml of each overnight culture was centrifuged, decanted and washed once with 0.05 molar potassium phosphate buffer or 0.05 molar N-2-hydroxy-ethylpiperazine-N'-2-ethanesulfonic acid (HEPES) buffer, pH 7.8, and resuspended in buffer.
TERGITOL 7 anionic surfactant was used to differentiate viable bacteria according to the prior art method. Various concentrations of TERGITOL 7 surfactant were mixed with a 10% glucose solution (50 μl), 3-(4,5-dimethyl-2-thiazolyl)-2,5-diphenyl-2N-tetrazolium bromide (MTT) (25 μl at 5 mg/ml methanol) or a RIND VII dispersion (1.5 ml) and phenazine methosulfate ETA (25 μl at 3 mg/ml methanol). The volume of each test solution was brought to 3 ml with potassium phosphate buffer. A cell suspension (100 μl at about 10^8 cells/ml) was then added. The solutions were incubated at 37° C. for 15 and 30 minutes in the presence of either E. coli, a gram(-) bacterium, or S. aureus, a gram(+) bacterium. The amount of dye formed was then determined visually, and graded as follows: "O" indicates no dye formation, +/- indicates faint dye formation, 1+ indicates light dye formation, 2+ indicates moderate dye formation, 3+ indicates strong dye formation, and 4+ indicates very strong dye formation. […]

Another assay relates to S. faecalis. Briefly: RIND XXIX reduction solution assay, Δ fluorescence. Format: cell-based, Streptococcus faecalis. To be noted: S. faecalis (gram +) about 5×10^7 cells/ml, gramicidin S 0.1 mg/ml, 37° C. As to the method:
as §4
(§5) Dispersions containing RIND compounds were prepared by dissolving the RIND compound in N,N-dimethylformamide (DMF) at 16 mg compound per ml of solvent. An aliquot (250 μl) of the resulting solution was added to 500 μl of TRITON X-100 surfactant. This mixture was then added dropwise with stirring to 25 ml of 0.05 molar HEPES buffer. A dispersion of RIND XXIX was prepared similarly except that DMF was acidified with 0.1% sulfuric acid. […]
(§6) The solutions were incubated at 37° C. for 30 minutes, and the change in fluorescence emission (Δ fluorescence) was determined as the difference between the readings taken when the solutions were first mixed and then after 30 minutes incubation. Measurements were made in a commercially available MICROFLUOR Reader (available from Dynatech Laboratories, Alexandria, Virginia, U.S.A.), modified with an excitation filter at 540 nm, an emission filter at 620 nm and a Xenon lamp.

Assay [2] has as its system P. vulgaris. Briefly: MTT reduction solution assay, ΔOD 540 nm. Type of assay: cell-based, Proteus vulgaris. Conditions: P. vulgaris (-) 5×10^7, gramicidin S 0.00625 mg/ml, 37° C. On the procedure: as §1, §2, §3
In assay [3] the test system is S. aureus. The experiment in a line: MTT reduction solution assay, ΔOD 540 nm. Type of assay: cell-based, Staphylococcus aureus. Conditions: S. aureus (+) 5×10^7, gramicidin S 0.00625 mg/ml, 37° C. As to the method: as §1, §2, §3
Assay [4] relates to various bacteria which are found in the human urinary tract. The experiment in a line: Differentiation with RIND VII, overall result. Type of assay: cell-based. Conditions: gramicidin S 10^-4 molar. On the procedure:
TERGITOL 7 anionic surfactant was used to differentiate viable bacteria according to the prior art method. Various concentrations of TERGITOL 7 surfactant were mixed with a 10% glucose solution (50 μl), 3-(4,5-dimethyl-2-thiazolyl)-2,5-diphenyl-2N-tetrazolium bromide (MTT) (25 μl at 5 mg/ml methanol) or a RIND VII dispersion (1.5 ml) and phenazine methosulfate ETA (25 μl at 3 mg/ml methanol). The volume of each test solution was brought to 3 ml with potassium phosphate buffer. A cell suspension (100 μl at about 10^8 cells/ml) was then added. The solutions were incubated at 37° C. for 15 and 30 minutes in the presence of either E. coli, a gram(-) bacterium, or S. aureus, a gram(+) bacterium. The amount of dye formed was then determined visually, and graded as follows: "O" indicates no dye formation, +/- indicates faint dye formation, 1+ indicates light dye formation, 2+ indicates moderate dye formation, 3+ indicates strong dye formation, and 4+ indicates very strong dye formation.
Gramicidin S, a cyclic polypeptide antibiotic, was similarly used with RIND VII in the differentiation of various bacteria which are found in the human urinary tract. Assays were performed as described above. The final concentration of gramicidin S in each test was 10^-4 molar. […] Dye measurements were made at 635 nm and expressed below as the change in optical density (ΔOD) which was corrected for background.

Assay [5] has as its system S. aureus. Briefly: RIND XXIX reduction solution assay, Δ fluorescence. To be noted: S. aureus (gram +) about 5×10^7 cells/ml, gramicidin S 0.1 mg/ml, 37° C. Type of assay: cell-based, Staphylococcus aureus. As to the method: as §4, §5, §6

As to gramicidin S, the “ΔOD, 620 nm after 30 Minutes” value is given as 1.042 with E. coli, 1.062 in the assay on K. pneumoniae and 1.029 in the assay with P. vulgaris [1]. Further, the “Corrected ΔOD (15 Minutes)” value with P. aeruginosa (P. aeruginosa 7 × 10^7 /ml) is 0.107; in the assay on P. aeruginosa (P. aeruginosa, cell concentration 1.5 × 10^8 /ml), more than 2.0. Moreover, the “Δ Fluorescence (30 Minutes)” value was determined as 0197 with S. faecalis and 0478 in the assay on S. aureus [5]. Besides, the entries for the “ΔOD, 540 nm after 30 Minutes” value in the assay with P. vulgaris [2] and with S. aureus [3] were 0.841 and 0.177, respectively. Also, the “inhibition of reduction of the RIND compound, in words” value in assay [4] was “selectively inhibits the reduction of the RIND compound by viable gram-positive bacteria but not gram-negative bacteria”.
